Experiments:
[1] = test system: SQCC-Y1 human squamous carcinoma cells; assay: Cornified envelope (cross-linked protein) assay, SQCC-Y1 cells; type: cell-based; details: for cross-linked protein production by MC derivatives: SQCC-Y1 cells, FIG. 11, preliminary; for potency in cross-linking: of 15 aromatic compounds, FIG. 12
308 and SQCC-Y1 cells = assay: Cross-linked protein envelopes by tyrosine kinase inhibitors (Table II); type: cell-based; details: concentrations within the range for inhibition of tyrosine kinases
Procedure: (§1) The assay measures insoluble cross-linked protein envelopes as described (Hough-Monroe et al. Analytical biochem., 199, 25-28, 1991), with modifications as follows. Cornified envelopes were prepared by scraping monolayers into 2% sodium dodecylsulphate (SDS), 20 mM dithiothreitol (DTT) in phosphate buffered saline (PBS). Unattached cells were pelleted from medium and were resuspended in SDS/DTT and pooled with attached cells. Samples were boiled for 10 mins. Cornified envelope samples were examined under the microscope using phase contrast optics or were applied to an RC60 membrane (Schleicher and Schuell, Keene, N.H.) on a 96-well dot-blot apparatus attached to a vacuum. Samples were washed three times with SDS/DTT and the resultant protein spots on RC60 membrane were fixed and stained as described. Sports were excised and eluted with 1% NH3 OH concentrated solution, 66% methanol (200 ul) overnight. Absorbance of eluate was measured on a Titertek plate reader at 600 nm.
A range of tyrosine kinase inhibitors was tested for ability to produce cross-linked protein envelopes in 308 and SQCC-Y1 cells. All inhibitors were obtained commercially from LC Laboratories, Woburn, Mass. Concentrations used were within the range for inhibition of tyrosine kinases.

[2] = test system: primary mouse keratinocytes; assay: Cornified envelope (cross-linked protein) assay, primary mouse keratinocytes; type: cell-based; details: 4° C. and 37° C., 48 hours
Procedure: FIGS. 3A and 3B. A: Time course for cornification of primary mouse keratinocytes in response to MC. Boxes represent […] Ca^2+, triangles represent 100 μM MC, 1.4 mM Ca^2+, and solid circles represent 1 mM MC, 1.4 mM Ca^2+. […] Cells were incubated in medium with 1.4 mM Ca^2+ and MC for 4 hours, then were incubated with MTT (0.5 mg/ml in medium) for a further 4 hours before determination of formazan production.
Primary mouse keratinocytes were isolated from BALB/c newborn mouse skin. Primary keratinocytes, the benign neoplastic keratinocyte cell lines 308 and SP-1 (Strickland et al, Cancer Res., 48, 165-169, 1988) and the mouse squamous cell carcinoma line 1-7 (Greenhalgh et al., Proc. Natl. Acad. Sci., 87, 643-647, 1990) were grown in Eagle's minimal essential medium with 8% fetal calf serum (FCS) (chelexed) and penicillin 20 iu/ml, streptomycin 20 ug/ml (P/S). Unless otherwise indicated, the Ca^2+ concentration in medium was adjusted to 0.05 mM (Hennings et al., Cells, 19, 245-254, 1980). A431 human epidermoid carcinoma cells were obtained from ATCC, Rockville, Md., and were routinely passaged in DMEM with 10% FCS, P/S, glutamine (2 mM) and pyruvate (1 mM). SQCC-Y1 human squamous carcinoma cells and non-tumorigenic HPV 18 and SV 40 infected human keratinocytes were kindly donated by Dr. James Rheinwald of Harvard University, Boston, Mass. and Dr. Richard Schlegel of Georgetown University, Washington D.C. respectively. Human cells were cultured in DMEM/Ham's F12 1:1, 10% FCS, P/S and epidermal growth factor 10 ng/ml.
Primary mouse keratinocytes were incubated with MC for 0, 0.5, 1, 4 and 48 hours and were processed as follows.
as §1
Cells were seeded at low density and were treated with MC for 3 days. Cells were then counted and increase in cell number was compared to untreated controls, or cells were processed for cross-linked protein.
Inhibitors were added 30 mins before MC or stsp (FIG. 6). Cross-linked protein was measured by the cornified envelope assay, described in Example 2.

transglutaminase = details: Dlugosz and Yuspa, Cancer Res., 51, 4677-4684, 1991; cited from earlier work

Row | SMILES | cross-linked protein production by MC derivatives [1] | potency in cross-linking [1] | other results
1 | COC(=O)c1cc2ccc(O)c(O)c2cn1.Cl [67F-36-A, 7,8-Dihydroxyisoquinoline-3-carboxylic acid methyl ester hydrochloride] | inactive |  | 
2 | COC(=O)c1ccc2c(O)c(O)ccc2c1 [67G-146-A, 5,6-Dihydroxy-2-naphthoic acid methyl ester] | active | most potent | cross-linked protein production by MC derivatives ([1]; listed as 67G-146A): clearly exhibit protein cross-linking activity
3 | O=C(/C=C/c1ccc(O)c(O)c1)OCCc1ccccc1 [67H-42-A, Caffeic acid β-phenylethyl ester] | inactive |  | 
4 | O=C(CCc1ccc(O)c(O)c1)OCCc1ccccc1 [67H-69-A, 3-(3,4-Dihydroxyphenyl) propanoic aid β-phenylethyl ester] | active | most potent | cross-linked protein production by MC derivatives ([1]; listed as 67H-69A): clearly exhibit protein cross-linking activity
5 | O=C(C=Cc1cc(O)c(O)cc1O)OCCc1ccccc1 [67H-98-A, 2,4,5-Trihydroxycinnamic acid β-phenylethyl ester] | active | most potent | cross-linked protein production by MC derivatives ([1]; listed as 67H-98A): clearly exhibit protein cross-linking activity
6 | O=C(C=Cc1cc(O)ccc1O)OCCc1ccccc1 [67H-124-A, 2.5-dihydroxycinnamic acid β-phenylethyl ester] | clearly exhibit protein cross-linking activity | most potent | 
7 | COC1C=CC=C(C)C(=O)NC2=CC(=O)C=C(C2=O)C(OC)C(C)CC(OC)C(OC)C(C)C=C(C)C1OC(N)=O (centres unmarked) [herbimycin A] |  |  | ability to induce cross-linking (308 and SQCC-Y1 cells): unable to induce cross-linking
8 | O=C(O)c1cc(N(Cc2ccccc2O)Cc2cc(O)ccc2O)ccc1O [lavendustin A] |  |  | ability to induce cross-linking (308 and SQCC-Y1 cells): unable to induce cross-linking
9 | CN[C@@H]1C[C@H]2O[C@@](C)([C@@H]1OC)n1c3ccccc3c3c4c(c5c6ccccc6n2c5c31)C(=O)NC4 [staurosporine, reference compound] |  |  | cross-linked protein at 4° C. and 37° C. [2]: temperature dependent; transglutaminase activity (literature) (transglutaminase): increases TGase activity

From patent US5610185A, “Method for the treatment of hyperproliferative epithelial skin diseases by topical application of hydroxylated aromatic protein cross-linking compounds” (The United States of America as represented by the …, priority 1995, dated 1997)
